Test system: Adnp-PTC718 expressing cells
Assay: Streptavidin purification and LC-MS/MS of FLAG/Avi-tagged Adnp-PTC718 from cells with and without aminoglycoside treatment (stop codon read-through, ChAHP complex formation)
Format: cell-based, mouse
Settings: Adnp-PTC718 expressing cells treated with 2 mg/ml gentamycin (2.9 mM) or paromomycin (3.2 mM) for 24 hours; LC-MS/MS of streptavidin-purified Adnp-PTC718
Experimental: FLAG/Avi-tagged Adnp-PTC718 was streptavidin purified from cells with and without aminoglycoside treatment and subjected to LC-MS/MS analysis. Adnp-PTC718 expressing cells were treated with 2 mg/ml gentamycin (2.9 mM) or paromomycin (3.2 mM) for 24 hours. The table depicts total spectral counts, unique peptides and percent sequence coverage for all ChAHP components from the different treatments.
Cells were grown to confluency on 10 cm dish, collected in PBS, and pelleted by 2 min centrifugation at 400 g. All subsequent steps were performed on ice or at 4 C. Pellets were resuspended in 3 ml of Nuclear extract buffer 1 (NEB1: 20 mM HEPES, 10 mM KCl, 1 mM EDTA, 0.1 mM Na3VO4, 0.2% NP-40, 10% glycerol, 1 mM DTT, 1×PIC) followed by centrifugation at 1000 g for 3 min. […] Protein concentration was determined using Bradford assay, and approximately 250 µg of nuclear extracts were used per affinity purification. […] The generated peptides were acidified with TFA to a final concentration of 0.8% and analyzed by capillary liquid chromatography tandem mass spectrometry with an EASY-nLC 1000 using the two-column set-up (Thermo Scientific). […] Protein identification and relative quantification of the proteins was done with MaxQuant version 1.5.3.8 using Andromeda as search engine^33 and label free quantification (LFQ.^34) as described in^35. […]

Compound	formation of the ChAHP complex (stop codon read-through)
NC[C@@H]1O[C@H](O[C@H]2[C@@H](O)[C@H](O[C@@H]3[C@@H](O)[C@H](N)C[C@H](N)[C@H]3O[C@H]3O[C@H](CO)[C@@H](O)[C@H](O)[C@H]3N)O[C@@H]2CO)[C@H](N)[C@@H](O)[C@@H]1O [paromomycin]	restore the formation of the ChAHP complex
gentamycin	restore the formation of the ChAHP complex

Source: US20200261484A1, “INHIBITION OF AUTISM SPECTRUM DISORDER USING RIBOSOMAL READ-THROUGH COMPOUNDS” (Friedrich Miescher Inst. for Biomedical Research, priority 2017, published 2020)
